# Measured values as given in patent publication US10034886B2, “GLP-1 receptor modulators” (Celgene International II SÀRL, priority 2014, dated 2018).
# Like-named read-outs stand apart in the source and are kept apart here.
# Target: T1, GLP-1R (Homo sapiens, UniProt P43220)
# T1 construct: host or cells: GLP-1R CRE-bla CHO-K1 cells
# Assay: EC20 GLP-1(9-36) PAM cAMP assay: dose response of compound in the presence of fixed concentration of GLP-1(9-36)
# Format: cell-based
# Details: GLP-1R CRE-bla CHO-K1 cells, read-out: EC20 GLP-1(9-36) PAM EC50
# Procedure, shortened: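 Positive allosteric modulation read as cAMP accumulation: compound titrations (12 points) combined with an EC20 level of GLP-1(9-36) on CHO-K1 GLP-1R CRE-bla cells, IBMX present, 30 min, 37 °C, pH 7.4 buffer. Luminescence converted to cAMP via standards; non-linear fit gave EC50 and Emax.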
# [1] = dose response of compound in presence of fixed concentration of GLP-1(9-36)
# [2] = compound dose response with fixed concentration of GLP-1(9-36)
# T1 sequence (P43220 24-463): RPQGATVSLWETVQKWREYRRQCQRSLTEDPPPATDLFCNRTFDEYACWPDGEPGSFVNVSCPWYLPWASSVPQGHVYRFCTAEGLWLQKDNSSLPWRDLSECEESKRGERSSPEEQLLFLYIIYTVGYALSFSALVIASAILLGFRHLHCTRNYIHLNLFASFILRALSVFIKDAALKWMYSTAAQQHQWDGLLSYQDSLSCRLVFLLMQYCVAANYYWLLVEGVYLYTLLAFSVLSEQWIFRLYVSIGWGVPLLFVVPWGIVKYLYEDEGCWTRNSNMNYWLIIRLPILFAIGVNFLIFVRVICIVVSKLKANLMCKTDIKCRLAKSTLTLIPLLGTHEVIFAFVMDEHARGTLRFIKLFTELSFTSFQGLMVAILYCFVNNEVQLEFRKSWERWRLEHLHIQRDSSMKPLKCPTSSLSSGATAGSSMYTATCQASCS
# T1 sequence (P01275 100-127 partner limits assumed): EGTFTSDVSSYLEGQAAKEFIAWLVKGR
SMILES,EC50 [1],EC50 [2]
CCC(C)(C)c1ccc(C(=O)N[C@@H](Cc2ccc(-c3ncc(-c4ccc([C@H]5CC[C@H](CC)CC5)cc4)cn3)cc2)C(=O)N2CC(C(=O)O)C2)cc1 [Compound 1157],< 0.8 µM,–
CCCCCCCOc1ccc(-c2cnc(-c3ccc(C[C@H](NC(=O)c4ccc(C(C)(C)C)cc4)C(=O)NC(Cc4cscn4)C(=O)O)cc3)nc2)cc1 (stereo partly shown) [Compound 544],< 0.8 µM,–
C[C@@H](NC(=O)[C@H](Cc1ccc(-c2ncc(-c3ccc(-c4cccc(C(F)(F)F)c4)cc3)cn2)cc1)NC(=O)c1ccc(C(C)(C)C)s1)C(=O)O [Compound 1319],–,5 to 10 µM
CCCCCCCOc1ccc(-c2cnc(-c3ccc(C[C@H](NC(=O)c4cnc(C(C)(C)C)nc4)C(=O)NC(C(=O)O)C(O)c4ccccc4)cc3)nc2)cc1 (stereo partly shown) [Compound 953],0.8 to 2.5 µM,–
CC(C)(C)c1ccc(C(=O)N[C@@H](Cc2ccc(-c3ncc(-c4ccc([C@H]5CC[C@@H](C)CC5)cc4)cn3)cc2)C(=O)O)s1 [Compound 1357],–,2.5 to 5 µM
CCCOc1ccc(C2CCN(c3cnc(-c4ccc(C[C@H](NC(=O)c5ccc(C(C)(C)C)s5)C(=O)N5CC(C(=O)O)C5)cc4)nc3)CC2)cc1 [Compound 1494],–,0.8 to 2.5 µM
CCCc1ccc(-c2ccc(-c3cnc(-c4ccc(C[C@H](NC(=O)C5CCC(C(C)(C)C)CC5)C(=O)N5CC(C(=O)O)C5)cc4)nc3)c(F)c2)cc1 (stereo partly shown) [Compound 1401],–,< 0.8 µM
CCCCCCCOc1ccc(-c2cnc(-c3ccc(C[C@H](NC(=O)c4ccc(C(C)(C)C)cc4)C(=O)N4CC[C@H](C(=O)O)C4)cc3)nc2)cc1 [Compound 632],0.8 to 2.5 µM,–
CC[C@H]1CC[C@H](c2ccc(-c3cnc(-c4ccc(C[C@H](NC(=O)c5ccc(CC(C)C)s5)C(=O)N5CC(C(=O)O)C5)cc4)nc3)cc2)CC1 [Compound 1152],< 0.8 µM,–
CCCCCCCOc1ccc(-c2cnc(-c3ccc(C[C@H](NC(=O)c4ccc(C(C)(C)C)s4)C(=O)N[C@@H](CC(=O)O)C(=O)N4CCNCC4)cc3)nc2)cc1 [Compound 534],0.8 to 2.5 µM,–
CC(C)(C)c1ccc(C(=O)N[C@@H](Cc2ccc(-c3ncc(-c4ccc(C#Cc5ccccc5)cc4)cn3)cc2)C(=O)NCCC(=O)O)cc1 [Compound 689],2.5 to 5 µM,–
CCCCCCCOc1ccc(-c2cnc(-c3ccc(C[C@H](NC(=O)c4ccc(C(C)(C)C)s4)C(=O)NCCCN4CCN(C)CC4)cc3)nc2)cc1 [Compound 961],2.5 to 5 µM,–
CCCCCCCOc1ccc(-c2cnc(-c3ccc(C[C@H](NC(=O)c4ccc(C(C)(C)C)s4)C(=O)NCCCN(CC)CC)cc3)nc2)cc1 [Compound 970],2.5 to 5 µM,–
CCCCCCCOc1ccc(-c2cnc(-c3ccc(C[C@H](NC(=O)c4cnc(C(C)(C)C)nc4)C(=O)N4CC[C@H](C(=O)O)C4)cc3)nc2)cc1 [Compound 856],0.8 to 2.5 µM,–
CC[C@H]1CC[C@H](c2ccc(-c3cnc(-c4ccc(C[C@H](NC(=O)c5ccc(C(F)(F)F)nc5)C(=O)O)cc4)nc3)cc2)CC1 [Compound 1388],–,0.8 to 2.5 µM
CCCC(C)CCOc1ccc(-c2cnc(-c3ccc(C[C@H](NC(=O)c4ccc(C(C)(C)C)cc4)C(=O)NCCC(=O)O)cc3)nc2)cc1 (stereo partly shown) [Compound 706],0.8 to 2.5 µM,–
"CCCCCCCOc1ccc(-c2cnc(-c3ccc(C[C@H](NC(=O)c4ccc(C(C)(C)C)s4)C(=O)N4CC(C(=O)O)C4)cc3)nc2)cc1 [Compound 635, (S)-1-(2-(5-(tert-butyl)thiophene-2-carboxamido)-3-(4-(5-(4-(heptyloxy)phenyl)pyrimidin-2-yl)phenyl)propanoyl)azetidine-3-carboxylic acid]",< 0.8 µM,–
CC(C)(C)c1ccc(C(=O)N[C@@H](Cc2ccc(-c3ncc(-c4ccc(-c5ccc(Cl)c(Cl)c5)cc4F)cn3)cc2)C(=O)N2CC(C(=O)O)C2)s1 [Compound 1200],< 0.8 µM,–
CCCCCCOc1ccc(-c2cnc(-c3ccc(C[C@H](NC(=O)c4ccc(C(C)(C)C)cc4)C(=O)NCCC(=O)O)cc3)nc2)cc1 [Compound 711],2.5 to 5 µM,–

SMILES,EC50 [1],EC50 [2]
C[C@@H](NC(=O)[C@H](Cc1ccc(-c2ncc(/C=C/c3cccc(C(F)(F)F)c3)cn2)cc1)NC(=O)c1ccc(C(C)(C)C)s1)C(=O)O [Compound 1251],–,5 to 10 µM
CCCCCC(=O)c1ccc(-c2cnc(-c3ccc(C[C@H](NC(=O)c4ccc(C(C)(C)C)s4)C(=O)N4CC[C@H](C(=O)O)C4)cc3)nc2)cc1 [Compound 766],2.5 to 5 µM,–
CC(C)(C)c1ccc(C(=O)N[C@@H](Cc2ccc(-c3ncc(-c4ccc([C@H]5CC[C@@H](C(F)(F)F)CC5)cc4)cn3)cc2)C(=O)N2CC(C(=O)O)C2)s1 [Compound 1185],< 0.8 µM,–
CCCCCCCOc1ccc(-c2cnc(-c3ccc(CC(NC(=O)c4ccc(C(C)(C)C)s4)C(=O)N4CC(C(=O)O)C4)cc3)nc2)cc1 (stereo not shown) [Compound 431],< 0.8 µM,–
CCCCCCCOc1ccc(-c2cnc(-c3ccc(C[C@H](NC(=O)c4ccc(C(C)(C)C)cc4)C(=O)NCCC(=O)O)cc3)nc2)cc1OC [Compound 699],5 to 10 µM,–
Cc1ccc(/C=C/c2cnc(-c3ccc(C[C@H](NC(=O)c4ccc(C(C)(C)C)s4)C(=O)N4CC[C@H](C(=O)O)C4)cc3)nc2)cc1 [Compound 1085],0.8 to 2.5 µM,–
CC[C@H]1CC[C@H](c2ccc(-c3cnc(-c4ccc(C[C@H](NC(=O)c5cnn(C(C)(C)C)c5)C(=O)N5CC(C(=O)O)C5)cc4)nc3)cc2)CC1 [Compound 1165],< 0.8 µM,–
CCCCCCCOc1ccc(-c2cnc(-c3ccc(C[C@H](NC(=O)c4ccc(C(C)(C)C)s4)C(=O)N4C[C@H](O)C[C@H]4C(=O)O)cc3)nc2)cc1 [Compound 612],< 0.8 µM,–
Cc1ccc(C(O)c2ccc(-c3cnc(-c4ccc(C[C@H](NC(=O)c5ccc(C(C)(C)C)s5)C(=O)N[C@H](C)C(=O)O)cc4)nc3)cc2)cc1 (stereo partly shown) [Compound 1030],5 to 10 µM,–
C[C@@H](NC(=O)[C@H](Cc1ccc(-c2ncc(-c3cc(OCc4ccccc4)ncc3F)cn2)cc1)NC(=O)c1ccc(C(C)(C)C)s1)C(=O)O [Compound 1041],0.8 to 2.5 µM,–
CC(C)CCCOc1ccc(-c2cnc(-c3ccc(C[C@H](NC(=O)c4ccc(CC(C)C)cc4)C(=O)N4CC(C(=O)O)C4)cc3)nc2)cc1 [Compound 1236],–,0.8 to 2.5 µM
CCC[C@H]1CC[C@H](C2CCN(c3cnc(-c4ccc(C[C@H](NC(=O)[C@H]5CC[C@H](C(C)(C)C)CC5)C(=O)N5CC(C(=O)O)C5)cc4)nc3)CC2)CC1 [Compound 1527],–,0.8 to 2.5 µM
C[C@@H](NC(=O)[C@H](Cc1ccc(-c2ncc(C#Cc3ccc(F)cc3)cn2)cc1)NC(=O)c1ccc(C(C)(C)C)s1)C(=O)O [Compound 1275],–,0.8 to 2.5 µM
CCCCCCCOc1ccc(-c2cnc(-c3ccc(C[C@H](NC(=O)c4ccc(C(C)(C)C)s4)C(=O)N4CC(CC(=O)O)C4)cc3)nc2)cc1 [Compound 607],0.8 to 2.5 µM,–
CCCCCCCOc1ccc(-c2cnc(-c3ccc(C[C@H](NC(=O)c4ccc(C(C)(C)C)s4)C(=O)N4CC[C@H](C(=O)O)C4)cc3)nc2)nc1 [Compound 1065],< 0.8 µM,–
Cc1ccc(-c2ccc(-c3cnc(-c4ccc(C[C@H](NC(=O)c5ccc(C(C)(C)C)cc5)C(=O)N[C@H](C)C(=O)O)cc4)nc3)cc2)cc1 [Compound 727],2.5 to 5 µM,–
CC(C)(C)CCOc1ccc(-c2cnc(-c3ccc(C[C@H](NC(=O)c4ccc(C(C)(C)C)s4)C(=O)N4CC(C(=O)O)C4)cc3)nc2)cc1 [Compound 796],< 0.8 µM,–
CCCCCCCOc1ccc(-c2cnc(-c3ccc(C[C@H](NC(=O)c4ccc(C(C)(C)C)s4)C(=O)N4CCCC4CC(=O)O)cc3)nc2)cc1 (stereo partly shown) [Compound 621],2.5 to 5 µM,–
